Results published in BindingDB's records for doi:10.1016/s0960-894x(02)01027-2 (Glaxosmithkline, 2003).

These molecules were tested against Methionine--tRNA ligase (Staphylococcus aureus) (assay: Compound tested for inhibition of Staphylococcus aureus MRS(methionyl tRNA synthetase) in aminoacylation assay).
Oc1cc(NCCCNCc2cc(Br)cc(Br)c2)nc2ccccc12 showed an IC50 of under 3 nM. With Oc1cc(NCCCNCc2cc(Cl)cc(Cl)c2Cl)nc2ccccc12 the IC50 was under 3 nM. CCOc1c(I)cc(I)cc1CNCCCNc1cc(O)c2ccccc2n1 gave an IC50 of under 3 nM.

Target: Methionine--tRNA ligase (Staphylococcus aureus)
Assay: as above
Remark: another data set of the same source
With CCOc1c(Cl)cc(OC)cc1CNCCCNc1cc(O)c2ccccc2n1 [2-[3-(3-Chloro-2-ethoxy-5-methoxy-benzylamino)-propylamino]-1H-quinolin-4-one] the IC50 was 4.3 nM. For Oc1cc(NCCCNCc2cc(Br)cc(Br)c2OCC(F)(F)F)nc2ccccc12 [2-{3-[3,5-Dibromo-2-(2,2,2-trifluoro-ethoxy)-benzylamino]-propylamino}-1H-quinolin-4-one], the IC50 was 11 nM. In the case of O=C(NCCCNc1cc(O)c2ccccc2n1)c1ccc(Cl)c(Cl)c1 [3,4-Dichloro-N-[3-(4-oxo-1,4-dihydro-quinolin-2-ylamino)-propyl]-benzamide], the IC50 is reported as 140 nM. For CCOc1c(Br)cc(C#N)cc1CNCCCNc1cc(O)c2ccccc2n1 [3-Bromo-4-ethoxy-5-{[3-(4-oxo-1,4-dihydro-quinolin-2-ylamino)-propylamino]-methyl}-benzonitrile], the IC50 was 4.6 nM.
